According to patent publication US6645479B1, “Targeted delivery of active/bioactive and perfuming compositions” (International Flavors & Fragrances Inc., priority 1997, dated 2003):

What was measured:
[1] = Vapor pressure of fragrance components
[2] = IFF permeation test: permeation rate through wax or polymer matrix
Excerpt: Referring to FIGS. 4A and 4B, fluid 46 is located in jar 44. Jar 44 has sidearm 45. The fluid 46 reaches fluid level 47. Directly in line with fluid level 47 is membrane 41. The diffusion membrane 41 is held in place with flanges 43 and jar lip 42, using bolts 401a and 401b which secures the flange in place. The sidearm 45 is closed using closure 49. The permeability apparatus is shown using reference numeral 40. The IFF permeability test is based on the use of the apparatus of FIGS. 4A and 4B. The weight of membrane 41 is taken, initially, before being placed within the flange 43 and the jar lip 42. Substance 46 for which the permeability is to be measured is placed into jar 44 to fluid level 47. The apparatus containing fluid 46 remains in place for a fixed period of time. At the end of that period of time, bolts 401a and 401b as well as 401c are loosened, the flange 43 removed and membrane 41 is removed and weighed, thereby gathering sufficient data to determine the permeability of the particular substance 46. […] The Y axis measures weight loss and is indicated by reference numeral 54.

Compound | Vapor Pressure mm/Hg at 25° C. [1] | further results
CC(=O)C1(C)CC2=C(CCCC2(C)C)CC1C (stereo not shown) [ISO E SUPER ®] | 0.002 mm/Hg | 
CC(=O)c1cc2c(cc1C)C(C)(C)C(C)CC2(C)C (stereo not shown) [TONALID ®] | 0.0001 mm/Hg | 
CC(C=O)Cc1ccc(C(C)C)cc1 (stereo not shown) [cyclamal] | 0.004 mm/Hg | 
C=CCc1ccc(OC)cc1 [methyl chavicol] | 0.09 mm/Hg | 
CC(=O)OC1CCC(C(C)(C)C)CC1 (stereo not shown) [VERTENEX ® HC] | 0.03 mm/Hg | 
CC1=CC(C)C(C=O)CC1 (stereo not shown) | 0.3 mm/Hg | 
CC(=O)OCc1ccccc1 [benzyl acetate] | 0.1 mm/Hg | 
C=CC(C)(CCC=C(C)C)OC(C)=O (stereo not shown) [linalyl acetate] | 0.07 mm/Hg | 
CC12CCC(CC1=O)C2(C)C (stereo not shown) [camphor] | 0.1 mm/Hg | 
C=CCOC(=O)COCCC(C)C [allyl amyl glycolate] | 0.07 mm/Hg | 
CC(C)=CCCC(C)CCO (stereo not shown) [citronellol] | 0.009 mm/Hg | 
C/C=C(\C)C(=O)OCC [ethyl tiglate] |  | permeation rate through matrix material ([2]; matrix: carnauba wax): 4.4 × 10^−4; permeation rate through matrix material ([2]; matrix: polyamide (MACROMELT 6030)): 4.2 × 10^−4; permeation rate through matrix material ([2]; matrix: polyethylene wax, molecular weight 500): 2.0 × 10^−5
CC(C=O)Cc1ccc(C(C)(C)C)cc1 (stereo not shown) [LILIAL ®] | 0.003 mm/Hg | 
CC/C=C\CCOC(C)=O [cis-3-hexenyl acetate] | 2.0 mm/Hg | 
CC/C=C\CCOC(=O)c1ccccc1O [cis-3-hexenyl salicylate] | 0.0008 mm/Hg | 

Now from value to compound, other results behind:

Vapor Pressure mm/Hg at 25° C. [1] | Compound | further results
0.02 mm/Hg | CC1(C)[C@H]2CC[C@]1(C)[C@H](O)C2 [l-borneol] | 
0.02 mm/Hg | CC1=CCC(C(C)(C)O)CC1 (stereo not drawn) [α-terpineol] | 
0.006 mm/Hg | CC(=O)/C=C/C1=C(C)CCCC1(C)C [β-ionone] | 
0.02 mm/Hg | OCCc1ccccc1 [β-phenyl ethyl alcohol] | 
0.05 mm/Hg | C=CC(C)(O)CCC=C(C)C (stereo not shown) [linalool] | 
0.1 mm/Hg | CC(=O)OC(C)c1ccccc1 (stereo not shown) [styralyl acetate] | 
0.0003 mm/Hg | CCCCCCC(C=O)=Cc1ccccc1 [hexyl cinnamic aldehyde] | 
0.09 mm/Hg | CC(=O)O[C@@H]1C[C@H]2CC[C@]1(C)C2(C)C (racemic) [isobornyl acetate] | 
0.002 mm/Hg | peach aldehyde coeur | 
0.009 mm/Hg | CCCCCCCCCC(C)C=O (stereo not shown) [methyl nonyl acetaldehyde] | 
0.09 mm/Hg | C=CC(C)CCCC(C)(C)O (stereo not shown) [dihydromyrcenol] | 
